Reference: PubChem BioAssay AID2060885 (Molecular Pharmacology Branch, DTP, NCI, 2025)

Test system: NCI-H23 complex spheroids with HUVEC/MSC, viability
Assay: Anticancer human tumor NCI-H23 cell line growth inhibition [RAS];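 further: spheroids exposed to compound for 7 days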;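 on viability, T/C: 100% = DMSO vehicle control viability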
Conditions: for IC50: curve of first compound; for viability, T/C: stronger effect = lower value; active means viability on the fitted dose curve at most 10% of control; inactive means the rest
Outline: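 Multi-cell-type spheroids: tumor cells plus HUVEC endothelial cells and mesenchymal stem cells. RAS-pathway inhibitors were combined with targeted agents, each dosed in half-log steps down from clinical Cmax, or from 10 microM when Cmax was unknown.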

[1] = second compound 0.000949 µM, first compound 0.00316 µM
[2] = second compound 0.000949 µM, first compound 0.01 µM
[3] = second compound 0.000949 µM, first compound 0.0316 µM
[4] = second compound 0.000949 µM, first compound 0.1 µM
[5] = second compound 0.003 µM, first compound 0.00316 µM
[6] = second compound 0.003 µM, first compound 0.01 µM
[7] = second compound 0.003 µM, first compound 0.0316 µM
[8] = second compound 0.003 µM, first compound 0.1 µM
[9] = second compound 0.00949 µM, first compound 0.00316 µM
[10] = second compound 0.00949 µM, first compound 0.01 µM
[11] = second compound 0.00949 µM, first compound 0.0316 µM
[12] = second compound 0.00949 µM, first compound 0.1 µM
[13] = second compound 0.03 µM, first compound 0.00316 µM
[14] = second compound 0.03 µM, first compound 0.01 µM
[15] = second compound 0.03 µM, first compound 0.0316 µM
[16] = second compound 0.03 µM, first compound 0.1 µM
[17] = second compound 0.0949 µM, first compound 0.00316 µM
[18] = second compound 0.0949 µM, first compound 0.01 µM
[19] = second compound 0.0949 µM, first compound 0.0316 µM
[20] = second compound 0.0949 µM, first compound 0.1 µM
[21] = second compound 0.3 µM, first compound 0.00316 µM
[22] = second compound 0.3 µM, first compound 0.01 µM
[23] = second compound 0.3 µM, first compound 0.0316 µM
[24] = second compound 0.3 µM, first compound 0.1 µM
[25] = second compound 0.000949 µM, first compound 0.316 µM
[26] = second compound 0.000949 µM, first compound 1 µM
[27] = second compound 0.000949 µM, first compound 3.16 µM
[28] = second compound 0.000949 µM, first compound 10 µM
[29] = second compound 0.003 µM, first compound 0.316 µM
[30] = second compound 0.003 µM, first compound 1 µM
[31] = second compound 0.003 µM, first compound 3.16 µM
[32] = second compound 0.003 µM, first compound 10 µM
[33] = second compound 0.00949 µM, first compound 0.316 µM
[34] = second compound 0.00949 µM, first compound 1 µM
[35] = second compound 0.00949 µM, first compound 3.16 µM
[36] = second compound 0.00949 µM, first compound 10 µM
[37] = second compound 0.03 µM, first compound 0.316 µM
[38] = second compound 0.03 µM, first compound 1 µM
[39] = second compound 0.03 µM, first compound 3.16 µM
[40] = second compound 0.03 µM, first compound 10 µM
[41] = second compound 0.0949 µM, first compound 0.316 µM
[42] = second compound 0.0949 µM, first compound 1 µM
[43] = second compound 0.0949 µM, first compound 3.16 µM
[44] = second compound 0.0949 µM, first compound 10 µM
[45] = second compound 0.3 µM, first compound 0.316 µM
[46] = second compound 0.3 µM, first compound 1 µM
[47] = second compound 0.3 µM, first compound 3.16 µM
[48] = second compound 0.3 µM, first compound 10 µM

CC(C)n1nc(-c2ccc3oc(N)nc3c2)c2c(N)ncnc21 + CCn1c(-c2cc(N3CCN(C)CC3)cnc2C(C)OC)c2c3cc(ccc31)-c1csc(n1)CC(NC(=O)C1CC1C)C(=O)N1CCCC(N1)C(=O)OCC(C)(C)C2
inactive: viability, T/C (second compound 0.000949 µM, first compound 0.000316 µM) 44.2% | viability, T/C (second compound 0.000949 µM, first compound 0.001 µM) 41.7% | viability, T/C [1] 24.1% | viability, T/C [2] 30% | viability, T/C [3] 24.2% | viability, T/C [4] 13.5% | viability, T/C (second compound 0.003 µM, first compound 0.000316 µM) 32.4% | viability, T/C (second compound 0.003 µM, first compound 0.001 µM) 24.6% | viability, T/C [5] 25.8% | viability, T/C [6] 21.6% | viability, T/C [7] 19% | viability, T/C [8] 9.18% | viability, T/C (second compound 0.00949 µM, first compound 0.000316 µM) 31.2% | viability, T/C (second compound 0.00949 µM, first compound 0.001 µM) 26.8% | viability, T/C [9] 24.1% | viability, T/C [10] 20% | viability, T/C [11] 16.4% | viability, T/C [12] 11.4% | viability, T/C (second compound 0.03 µM, first compound 0.000316 µM) 24.5% | viability, T/C (second compound 0.03 µM, first compound 0.001 µM) 25.2% | viability, T/C [13] 22.7% | viability, T/C [14] 19% | viability, T/C [15] 11.7% | viability, T/C [16] 11.6% | viability, T/C (second compound 0.0949 µM, first compound 0.000316 µM) 19.2% | viability, T/C (second compound 0.0949 µM, first compound 0.001 µM) 19.4% | viability, T/C [17] 19.2% | viability, T/C [18] 16.6% | viability, T/C [19] 9.51% | viability, T/C [20] 11.2% | viability, T/C (second compound 0.3 µM, first compound 0.000316 µM) 17.9% | viability, T/C (second compound 0.3 µM, first compound 0.001 µM) 17% | viability, T/C [21] 16.4% | viability, T/C [22] 13.4% | viability, T/C [23] 13.5% | viability, T/C [24] 11.5%
< 0.000316 µM: IC50 (second compound 0.000949 µM) | IC50 (second compound 0.003 µM) | IC50 (second compound 0.00949 µM) | IC50 (second compound 0.03 µM) | IC50 (second compound 0.0949 µM) | IC50 (second compound 0.3 µM)

CC1(O)CCCC1n1c(=O)c(C(F)F)cc2cnc(NC3CCN(S(C)(=O)=O)CC3)nc21 (stereo not drawn) + CCn1c(-c2cc(N3CCN(C)CC3)cnc2C(C)OC)c2c3cc(ccc31)-c1csc(n1)CC(NC(=O)C1CC1C)C(=O)N1CCCC(N1)C(=O)OCC(C)(C)C2
active: viability, T/C [32] 1.43% | viability, T/C [40] 2.47% | viability, T/C [43] 12.1% | viability, T/C [44] 2.66% | viability, T/C [47] 11.8% | viability, T/C [48] 2.94%
inactive: viability, T/C [3] 33.9% | viability, T/C [4] 26.3% | viability, T/C [25] 17.7% | viability, T/C [26] 25.8% | viability, T/C [27] 25.5% | viability, T/C [28] 2.68% | viability, T/C [7] 31.6% | viability, T/C [8] 18.7% | viability, T/C [29] 15.9% | viability, T/C [30] 19.1% | viability, T/C [31] 24% | viability, T/C [11] 32% | viability, T/C [12] 15.7% | viability, T/C [33] 13.9% | viability, T/C [34] 17.6% | viability, T/C [35] 17.9% | viability, T/C [36] 1.78% | viability, T/C [15] 20.8% | viability, T/C [16] 18% | viability, T/C [37] 15% | viability, T/C [38] 17.1% | viability, T/C [39] 14.5% | viability, T/C [19] 17.3% | viability, T/C [20] 15.4% | viability, T/C [41] 13.4% | viability, T/C [42] 14.1% | viability, T/C [23] 18.7% | viability, T/C [24] 14.8% | viability, T/C [45] 15.1% | viability, T/C [46] 12.8%
< 0.0316 µM: IC50 (second compound 0.000949 µM) | IC50 (second compound 0.003 µM) | IC50 (second compound 0.00949 µM) | IC50 (second compound 0.03 µM) | IC50 (second compound 0.0949 µM) | IC50 (second compound 0.3 µM)

CCN1CCN(Cc2ccc(Nc3ncc(F)c(-c4cc(F)c5nc(C)n(C(C)C)c5c4)n3)nc2)CC1 + CCn1c(-c2cc(N3CCN(C)CC3)cnc2C(C)OC)c2c3cc(ccc31)-c1csc(n1)CC(NC(=O)C1CC1C)C(=O)N1CCCC(N1)C(=O)OCC(C)(C)C2
< 0.00316 µM: IC50 (second compound 0.000949 µM) | IC50 (second compound 0.003 µM) | IC50 (second compound 0.00949 µM) | IC50 (second compound 0.03 µM) | IC50 (second compound 0.0949 µM) | IC50 (second compound 0.3 µM)
inactive: viability, T/C [1] 37.3% | viability, T/C [2] 32.9% | viability, T/C [3] 18.3% | viability, T/C [4] 20.1% | viability, T/C [25] 17.9% | viability, T/C [26] 12.9% | viability, T/C [5] 29.6% | viability, T/C [6] 22.1% | viability, T/C [7] 16% | viability, T/C [8] 16.8% | viability, T/C [29] 14.3% | viability, T/C [30] 12.3% | viability, T/C [9] 29% | viability, T/C [10] 21.5% | viability, T/C [11] 17.2% | viability, T/C [12] 16.2% | viability, T/C [33] 12.9% | viability, T/C [34] 10.4% | viability, T/C [13] 23.1% | viability, T/C [14] 17.9% | viability, T/C [15] 18.9% | viability, T/C [16] 14% | viability, T/C [37] 9.41% | viability, T/C [38] 14.5% | viability, T/C [17] 16.1% | viability, T/C [18] 16% | viability, T/C [19] 13.7% | viability, T/C [20] 10.7% | viability, T/C [41] 10.1% | viability, T/C [42] 13.1% | viability, T/C [21] 14.8% | viability, T/C [22] 16.5% | viability, T/C [23] 12.8% | viability, T/C [24] 10.4% | viability, T/C [45] 10.6% | viability, T/C [46] 12.6%

C[C@@H](NC(=O)c1ncnc(N)c1Cl)c1ncc(C(=O)Nc2cc(C(F)(F)F)c(Cl)cn2)s1 + CCn1c(-c2cc(N3CCN(C)CC3)cnc2C(C)OC)c2c3cc(ccc31)-c1csc(n1)CC(NC(=O)C1CC1C)C(=O)N1CCCC(N1)C(=O)OCC(C)(C)C2
inactive: viability, T/C [3] 51.5% | viability, T/C [4] 54.4% | viability, T/C [25] 46.1% | viability, T/C [26] 48.4% | viability, T/C [27] 49.9% | viability, T/C [28] 25% | viability, T/C [7] 39.7% | viability, T/C [8] 33% | viability, T/C [29] 33.9% | viability, T/C [30] 37.2% | viability, T/C [31] 38.5% | viability, T/C [32] 24.6% | viability, T/C [11] 35.3% | viability, T/C [12] 29.5% | viability, T/C [33] 32.5% | viability, T/C [34] 32.8% | viability, T/C [35] 31.7% | viability, T/C [36] 27% | viability, T/C [15] 29.4% | viability, T/C [16] 27.8% | viability, T/C [37] 31.3% | viability, T/C [38] 30.7% | viability, T/C [39] 29.3% | viability, T/C [40] 25.2% | viability, T/C [19] 21.1% | viability, T/C [20] 22.3% | viability, T/C [41] 26.3% | viability, T/C [42] 28.4% | viability, T/C [43] 21.8% | viability, T/C [44] 24.2% | viability, T/C [23] 22.6% | viability, T/C [24] 24.4% | viability, T/C [45] 24.2% | viability, T/C [46] 22.7% | viability, T/C [47] 25.4% | viability, T/C [48] 21.9%
1.53 µM: IC50 (second compound 0.000949 µM)
< 0.0316 µM: IC50 (second compound 0.003 µM) | IC50 (second compound 0.00949 µM) | IC50 (second compound 0.03 µM) | IC50 (second compound 0.0949 µM) | IC50 (second compound 0.3 µM)
